Legend:
Assay type in all cases: cell-based
E. coli BL21 = experiment: MIC against Gram-negative bacteria: E. coli BL21; conditions: for MIC (μg/mL) E. coli BL21 / MIC against E. coli BL21: 5×10^5 CFU/mL
In short: (§1)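 LB broth cultures at McFarland 0.5, spun down, resuspended, diluted to 5×10^5 CFU/mL final. Two-fold serial dilutions of purified human EGF domain proteins, triplicate. 37° C, 175 rpm shaking. Endpoint: no visible growth.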

Proteus mirabilis = experiment: MIC against Gram-negative bacteria: Proteus mirabilis; conditions: for MIC (μg/mL) P. mirabilis / MIC against P. mirabilis: 5×10^5 CFU/mL
In short: as §1

Citrobacter diversus = experiment: MIC against Gram-negative bacteria: Citrobacter diversus; conditions: for MIC (μg/mL) C. diversus / MIC against C. diversus: 5×10^5 CFU/mL
In short: as §1

Serratia marcescens = experiment: MIC against Gram-negative bacteria: Serratia marcescens; conditions: for MIC (μg/mL) S. marcescens / MIC against S. marcescens: 5×10^5 CFU/mL
In short: as §1

Klebsiella pneumonia = experiment: MIC against Gram-negative bacteria: Klebsiella pneumonia; conditions: for MIC (μg/mL) K. pneumonia / MIC against K. pneumonia: 5×10^5 CFU/mL
In short: as §1

Pseudomonas aeruginosa = experiment: MIC against Gram-negative bacteria: Pseudomonas aeruginosa; conditions: for MIC (μg/mL) P. aeruginosa / MIC against P. aeruginosa: 5×10^5 CFU/mL
In short: as §1

Moraxella catarrhalis = experiment: MIC against Gram-negative bacteria: Moraxella catarrhalis; conditions: for MIC (μg/mL) M. catarrhalis / MIC against M. catarrhalis: 5×10^5 CFU/mL
In short: as §1

Aeromonas hydrophila = experiment: MIC against Gram-negative bacteria: Aeromonas hydrophila; conditions: for MIC (μg/mL) A. hydrophila / MIC against A. hydrophila: 5×10^5 CFU/mL
In short: as §1

Enterobacter cloacae = experiment: MIC against Gram-negative bacteria: Enterobacter cloacae; conditions: for MIC (μg/mL) E. cloacae / MIC against E. cloacae: 5×10^5 CFU/mL
In short: as §1

E. coli DH5α = experiment: Antibacterial activity: MIC and growth curve against E. coli DH5α in 96-well plate; conditions: minimal inhibitory concentration against E. coli DH5α; 96-well plate, 5×10^5 CFU/mL, 37° C., judged after 8 h
In short: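 Log-phase DH5α (OD600 about 0.5, 37° C, 185 rpm in LB) was pelleted, resuspended in fresh LB and seeded at 5×10^5 CFU/mL with recombinant protein at 50, 25 and 12.5 μg/mL (two-fold series), in triplicate. Plates were shaken at 175 rpm, 37° C, and OD600 was read every 30 min. MIC was the lowest concentration with no growth.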

Proteus vulgaris = experiment: MIC against Gram-negative bacteria: Proteus vulgaris; conditions: for MIC (μg/mL) P. vulgaris / MIC against P. vulgaris: 5×10^5 CFU/mL
In short: as §1

[1] = E. coli BL21, 10 h cultivation at 37° C.
[2] = P. mirabilis, 10 h cultivation at 37° C.
[3] = C. diversus, 10 h cultivation at 37° C.
[4] = S. marcescens, 10 h cultivation at 37° C.
[5] = K. pneumonia, 10 h cultivation at 37° C.
[6] = P. aeruginosa, 10 h cultivation at 37° C.
[7] = M. catarrhalis, 10 h cultivation at 37° C.
[8] = A. hydrophila, 10 h cultivation at 37° C.
[9] = E. cloacae, 10 h cultivation at 37° C.
[10] = P. vulgaris, 10 h cultivation at 37° C.

## PRT118 (DVDECVGPGGPLCDSLCFNTQGSFHCGCLPGWVLAPNGVSCT; listed as Homo sapiens)
E. coli BL21; E. coli BL21, 96-well plate, 37° C., 10 h
  MIC (μg/mL) E. coli BL21: 12.5 µg/mL
Proteus mirabilis; Proteus mirabilis, 96-well plate, 37° C., 10 h
  MIC (μg/mL) P. mirabilis: 12.5 µg/mL
Citrobacter diversus; Citrobacter diversus, 96-well plate, 37° C., 10 h
  MIC (μg/mL) C. diversus: 12.5 µg/mL
Serratia marcescens; Serratia marcescens, 96-well plate, 37° C., 10 h
  MIC (μg/mL) S. marcescens: 12.5 µg/mL
Klebsiella pneumonia; Klebsiella pneumonia, 96-well plate, 37° C., 10 h
  MIC (μg/mL) K. pneumonia: 12.5 µg/mL
Pseudomonas aeruginosa; Pseudomonas aeruginosa, 96-well plate, 37° C., 10 h
  MIC (μg/mL) P. aeruginosa: 12.5 µg/mL
Moraxella catarrhalis; Moraxella catarrhalis, 96-well plate, 37° C., 10 h
  MIC (μg/mL) M. catarrhalis: 25 µg/mL
Aeromonas hydrophila; Aeromonas hydrophila, 96-well plate, 37° C., 10 h
  MIC (μg/mL) A. hydrophila: 12.5 µg/mL
Enterobacter cloacae; Enterobacter cloacae, 96-well plate, 37° C., 10 h
  MIC (μg/mL) E. cloacae: 12.5 µg/mL
E. coli DH5α
  MIC: 12.5 µg/mL
Proteus vulgaris; Proteus vulgaris, 96-well plate, 37° C., 10 h
  MIC (μg/mL) P. vulgaris: 25 µg/mL

## PRT1411 (SVDNCPSNCYGNGDCISGTCHCFLGFLGPDCG; listed as Homo sapiens)
E. coli BL21; [1]
  MIC against E. coli BL21: 25 µg/mL
Proteus mirabilis; Proteus mirabilis, 10 h cultivation at 37° C.
  MIC against P. mirabilis: 12.5 µg/mL
Citrobacter diversus; Citrobacter diversus, 10 h cultivation at 37° C.
  MIC against C. diversus: 12.5 µg/mL
Serratia marcescens; Serratia marcescens, 10 h cultivation at 37° C.
  MIC against S. marcescens: 12.5 µg/mL
Klebsiella pneumonia; Klebsiella pneumonia, 10 h cultivation at 37° C.
  MIC against K. pneumonia: 25 µg/mL
Pseudomonas aeruginosa; Pseudomonas aeruginosa, 10 h cultivation at 37° C.
  MIC against P. aeruginosa: 12.5 µg/mL
Moraxella catarrhalis; Moraxella catarrhalis, 10 h cultivation at 37° C.
  MIC against M. catarrhalis: 12.5 µg/mL
Aeromonas hydrophila; Aeromonas hydrophila, 10 h cultivation at 37° C.
  MIC against A. hydrophila: 12.5 µg/mL
Enterobacter cloacae; Enterobacter cloacae, 10 h cultivation at 37° C.
  MIC against E. cloacae: 12.5 µg/mL
E. coli DH5α
  MIC: 12.5 µg/mL
Proteus vulgaris; Proteus vulgaris, 10 h cultivation at 37° C.
  MIC against P. vulgaris: 25 µg/mL

## PRT1006 (PLSSCQKAALSQGIDVSSLCHNGGLCVDSGPSYFCHCPPGFQGSLCQ; listed as Homo sapiens)
E. coli BL21; [1]
  MIC: 50 µg/mL
Proteus mirabilis; [2]
  MIC: 25 µg/mL
Citrobacter diversus; [3]
  MIC: 25 µg/mL
Serratia marcescens; [4]
  MIC: 25 µg/mL
Klebsiella pneumonia; [5]
  MIC: 50 µg/mL
Pseudomonas aeruginosa; [6]
  MIC: 12.5 µg/mL
Moraxella catarrhalis; [7]
  MIC: 12.5 µg/mL
Aeromonas hydrophila; [8]
  MIC: 50 µg/mL
Enterobacter cloacae; [9]
  MIC: 12.5 µg/mL
E. coli DH5α
  MIC: 12.5 µg/mL
Proteus vulgaris; [10]
  MIC: 50 µg/mL

## PRT151 (GCKYLSDINITRYNINCRENRACNELFHCQCDPGYAPPDCE; listed as Homo sapiens)
E. coli BL21; [1]
  MIC (μg/mL) E. coli BL21: 50 µg/mL
Proteus mirabilis; [2]
  MIC (μg/mL) P. mirabilis: 25 µg/mL
Citrobacter diversus; [3]
  MIC (μg/mL) C. diversus: 25 µg/mL
Serratia marcescens; [4]
  MIC (μg/mL) S. marcescens: 12.5 µg/mL
Klebsiella pneumonia; [5]
  MIC (μg/mL) K. pneumonia: 50 µg/mL
Pseudomonas aeruginosa; [6]
  MIC (μg/mL) P. aeruginosa: 12.5 µg/mL
Moraxella catarrhalis; [7]
  MIC (μg/mL) M. catarrhalis: 12.5 µg/mL
Aeromonas hydrophila; [8]
  MIC (μg/mL) A. hydrophila: 50 µg/mL
Enterobacter cloacae; [9]
  MIC (μg/mL) E. cloacae: 12.5 µg/mL
E. coli DH5α
  MIC: 12.5 µg/mL
Proteus vulgaris; [10]
  MIC (μg/mL) P. vulgaris: 50 µg/mL

## PRT536 (CECHPTGATGPHCSPEGGQCPCQPNVIGRQCTRCATGHYGFPRCKP; listed as Homo sapiens)
E. coli BL21; 96-well plate, 37° C., 10 h
  MIC against E. coli BL21: 50 µg/mL
Proteus mirabilis; 96-well plate, 37° C., 10 h
  MIC against P. mirabilis: 12.5 µg/mL
Citrobacter diversus; 96-well plate, 37° C., 10 h
  MIC against C. diversus: 12.5 µg/mL
Serratia marcescens; 96-well plate, 37° C., 10 h
  MIC against S. marcescens: 12.5 µg/mL
Klebsiella pneumonia; 96-well plate, 37° C., 10 h
  MIC against K. pneumonia: 50 µg/mL
Pseudomonas aeruginosa; 96-well plate, 37° C., 10 h
  MIC against P. aeruginosa: 12.5 µg/mL
Moraxella catarrhalis; 96-well plate, 37° C., 10 h
  MIC against M. catarrhalis: 50 µg/mL
Aeromonas hydrophila; 96-well plate, 37° C., 10 h
  MIC against A. hydrophila: 50 µg/mL
Enterobacter cloacae; 96-well plate, 37° C., 10 h
  MIC against E. cloacae: 12.5 µg/mL
E. coli DH5α
  MIC: 12.5 µg/mL
Proteus vulgaris; 96-well plate, 37° C., 10 h
  MIC against P. vulgaris: 50 µg/mL

## PRT1030 (DVDECSENRCHPAATCYNTPGSFSCRCQPGYYGDGFQCI; listed as Homo sapiens)
E. coli BL21; [1]
  MIC: 12.5 µg/mL
Proteus mirabilis; [2]
  MIC: 50 µg/mL
Citrobacter diversus; [3]
  MIC: 50 µg/mL
Serratia marcescens; [4]
  MIC: 50 µg/mL
Klebsiella pneumonia; [5]
  MIC: 12.5 µg/mL
Pseudomonas aeruginosa; [6]
  MIC: 50 µg/mL
Moraxella catarrhalis; [7]
  MIC: 12.5 µg/mL
Aeromonas hydrophila; [8]
  MIC: 25 µg/mL
Enterobacter cloacae; [9]
  MIC: 50 µg/mL
E. coli DH5α
  MIC: 25 µg/mL
Proteus vulgaris; [10]
  MIC: 12.5 µg/mL

Reference: patent US9833497B2, “Human originated EGF domain proteins and use of the same” (CHENGDU SOURCEBIO LIMITED-LIABILITY COMPANY, priority 2013, dated 2017)
